Measurements: patent US20250092369A1, “METHOD FOR IMPROVING TRANSCYTOSIS PROPERTIES OF HUMAN BLOOD-BRAIN BARRIER MODEL” (Wisconsin Alumni Research Foundation, priority 2023, published 2025)

Tests used:
hPSC-EPCs = settings: CHIR supplemented in hPSC-EPCs culture medium; cited from earlier work
[1] = system: heterogeneous gene-edited hPSC-EPCs; test: CD31 flow cytometry in heterogeneous gene-edited hPSC-EPCs, hygromycin/doxycycline timing; format: cell-based, human; settings: 6 days of hygromycin reselection followed by 4 days of doxycycline treatment
Description: To determine CD31 expression in edited hPSC-EPCs treated with doxycycline vs. DPBS (FIG. 15A,B), hPSC-ECs were isolated at day 13, 15, or 17, dissociated with Accutase as previously stated, quenched in DMEM supplemented with 10% FBS through a cell strainer, centrifuged, and resuspended in MACS buffer (100 μL/10^6 cells) supplemented with CD31-APC or APC isotype control antibodies at a 1:50 dilution. Cells were incubated at 4° C. for 20 min, protected from light. Cells were washed with 2 mL MACS buffer and centrifuged at 200×g for 5 min. Pellets were resuspended in 500 μL each of 4% PFA in DPBS and incubated 15 min at room temperature, protected from light. Cells were centrifuged at 200×g for 5 min and pellets were resuspended in 400 μL MACS buffer. Samples were run on an Attune NxT V6 flow cytometer with excitation at 633 nm. APC emission was detected with a 670/14 filter. Data were analyzed with Flow Jo software.

[2] = system: gene-edited PB-TRE-N1ICD hPSC-EPCs; test: RT-qPCR of BBB-related genes in gene-edited PB-TRE-N1ICD hPSC-EPCs + CHIR ± doxycycline; format: cell-based, human
Description: Gene-edited hPSC-derived EPCs (D5) with high post-MACS purity validated by flow cytometry were cultured on collagen IV-coated plates at approximately 4×10^4 cells/cm^2 in hECSR medium supplemented with various antibiotics, with media changes every other day. […] […] On D15, cells were collected for RT-qPCR quantification of differential gene expression between doxycycline and DPBS-treated gene-edited hPSC-EPCs.
RNA extraction was performed using the Direct-zol RNA Miniprep Kit (Zymo Research). Cells were lysed with 300-600 μL TRIzol reagent (Invitrogen, Waltham, MA) depending on the estimated cell count per sample. Cell lysates were combined with an equal volume of 100% ethanol and transferred to Zymo-Spin IICR spin columns. Columns were incubated with Rnase-free DNase I (Qiagen) to eliminate residual gDNA. Columns were washed with RNA Wash Buffer and Direct-zol RNA Pre-Wash according to Zymo RNA Miniprep Kit protocols. RNA was eluted with RNase-free water and concentration was determined using a NanoDrop 2000 spectrophotometer (Thermo Scientific). 250-1000 ng of RNA was reverse transcribed for 1 h at 37° C. using the OmniScript RT Kit (Qiagen). 1 U/μL RNaseOUT (Life Technologies) was included in the reverse-transcription reactions. Reaction products were diluted to 10 ng/μL. 20 μL qPCR reactions were carried out with 10 ng cDNA and 500 nM each forward and reverse primers (Integrated DNA Technologies, Coralville, IA [Table 1]) using PowerUp SYBR Green Master Mix (Life Technologies) or 1×Taqman Gene Expression Assay probes (Thermo Scientific [Table 1]) using Taqman Fast Advanced Master Mix (Thermo Scientific). Reactions were run on an AriaMx Real-Time PCR System (Agilent Technologies, Santa Clara, CA) using the thermal cycling program corresponding to either IDT primers or Taqman probes. An annealing temperature of 60° C. was used for all reactions.

[3] = system: gene-edited PB-TRE-N1ICD 10(+CR2) hPSC-EPCs; test: Transendothelial electrical resistance (TEER); format: cell-based, human; settings: Dox-treated edited hPSC-EPCs at end of culture (D15), doxycycline D11-D15
[4] = system: gene-edited PB-TRE-N1ICD 10(+CR2) hPSC-EPCs; test: Bulk RNA-sequencing of FACS-sorted gene-edited 10(+CR2) hPSC-EPC subpopulations; format: cell-based, human
Description: Ten PBS or doxycycline-treated gene-edited PB-TRE-N1ICD hPSC-derived endothelial cell subpopulations obtained via FACS were centrifuged at 200×g for 5 min. Pellets were resuspended TRIzol reagent (Invitrogen) for extraction of total RNA. RNA concentrations were quantified using the Qubit 4 Fluorometer (Invitrogen) and Qubit RNA High Sensitivity Assay Kit (Invitrogen). Purified RNA samples (≥200 ng) were sent to Novogene Corporation (Sacramento, CA) for library preparation and mRNA sequencing, with approximately 40-60 million paired end reads obtained per sample. FASTQ files were uploaded to the Galaxy^43 web platform and processed to generate a raw counts matrix using the publicly available bioinformatics server at usegalaxy.org. We ran FastQC to ensure high Phred quality scores and low percentages (<5%) adapter content (Galaxy). Illumina Universal Adapter sequences were trimmed from raw sequencing reads using Cutadapt (Galaxy). Data were aligned to the hg38 genome model using RNA STAR and raw reads per gene were determined using featureCounts. Differential expression analysis was performed in R using DESeq2^44. Heatmaps containing TPM values were generated using the pheatmap package in R. Comparison of the transcriptomic profile of […] overexpressing EPCs±Dox subpopulations to transcriptomes of established cell and tissue types was performed with […]^45.

[5] = system: gene-edited PB-TRE-N1ICD 10(+CR2) hPSC-EPCs; test: FACS of CD144 (VE-cadherin) subpopulations in gene-edited 10(+CR2) hPSC-EPCs; format: cell-based, human; settings: doxycycline-treated population, D15
Description: Gene-edited PB-TRE-N1ICD hPSC-EPCs were cultured in a 6-well plate with or without doxycycline as described above (n=3* replicates for doxycycline supplemented condition, n=4 replicates for PBS supplemented condition). On D15, cells were isolated with Accutase (incubated 15 mins at 37° C., 1 mL/well), triturated, and quenched through a 40 μm cell strainer into 4× the volume of DMEM (Life Technologies) supplemented with 10% FBS (R&D Systems). An additional well of gene-edited EPCs cultured with PBS was reserved as an isotype control. Unedited hPSCs maintained in E8 medium and unedited hPSC-EPCs cultured for 6 days in hECSR supplemented with 4 μM CHIR were used as an additional negative and positive control, respectively, for FACS. Cell count was quantified using a hemocytometer and cells were centrifuged at 200×g for 5 min. Cells were resuspended in MACS buffer at a concentration of 100 μL/10^6 cells. Cells suspensions were supplemented with CD144-APC or APC-conjugated isotype control antibodies (Table 2) at a 1:50 dilution for at 4° C. for 20 min, protected from light. Cells were washed with 2 mL MACS buffer and centrifuged at 200×g for 5 min. Pellets were resuspended in 400 μL each of MACS buffer supplemented with 1 μg/mL DAPI (Invitrogen) and incubated at 4° C., protected from light.
Cells were sorted using the BD FACSAria III Cell Sorter (BD Biosciences). Gates for high or low CD144-expressing cells were determined based on two negative controls (gene-edited PB-TRE-N1ICD hPSC-derived ECs stained with APC isotype control antibody or unedited hPSCs stained with CD144-APC antibody, both negative for CD144) and one positive control (unedited hPSC-EPCs cultured with CHIR, CD144 high). After establishing gates, live gene-edited PB-TRE-N1ICD hPSC-ECs treated with or without doxycycline were sorted into tubes containing 500 μL MACS buffer and stored at 4° C.

[6] = system: gene-edited PB-TRE-N1ICD hPSC-EPCs; test: Fluorescent albumin accumulation assay in gene-edited PB-TRE-N1ICD hPSC-EPCs; format: cell-based, human; settings: PBS-treated 10(+CR2) cells, 30 min pretreatment: 3 mM MβCD, 20 µM CPZ or 2 μM rottlerin
Description: Fixable, Alexa Fluor 647-conjugated bovine serum albumin (BSA) (Invitrogen) was used as a substrate to estimate total fluid-phase endocytosis. […] Similarly, D6 cultures of HUVECs treated with GFP or N1ICD LV were pre-treated with or without 3 mM MβCD for 30 min at 37° C. Cells were washed once with sterile DPBS and then incubated in hECSR (for hPSC-EPCs) supplemented with 5 μg/mL BSA or 1:1000 diluted DPBS, 1:100 diluted CD144-FITC or FITC isotype control antibody, and 4 μM Hoechst 33342 (Life Technologies) or EGM-2 media (for HUVECs) supplemented with 5 μg/mL BSA or 1:1000 diluted DPBS and 4 μM Hoechst 33342 at 4° C. or 37° C. for 2 h on a rotating platform at 30 rpm, protected from light. Cells were then washed 3 times with 4° C. sterile DPBS to stop the assay and wash away any extracellular BSA. Internalization of fluorescent BSA was visualized using an Eclipse Ti2-E epifluorescence microscope (Nikon, Tokyo, Japan) with a 20× objective.
Flow cytometry was used to quantify accumulated BSA fluorescence within cells. […] FITC emission was detected with a 530/30 filter and AlexaFluor 647 emission was detected with a 670/14 filter. Data were analyzed with Flow Jo software.

[7] = clone 10(+CR2), 6d H+4d D, 1 μg/mL doxycycline vs PBS, D15
[8] = clone 10(+CR2), 6d P+4d D vs PBS control

In the case of `Cc1c[nH]c(-c2cnc(NCCNc3ccc(C#N)cn3)nc2-c2ccc(Cl)cc2Cl)n1` [CHIR, CHIR99021], the “increase in normalized SLC2A1 expression (TPM)” value (hPSC-EPCs) is given as ~750 fold.
In the case of `C[C@H]1c2cccc(O)c2C(=O)C2=C(O)[C@]3(O)C(=O)C(C(N)=O)=C(O)[C@@H](N(C)C)[C@@H]3[C@@H](O)[C@@H]21` [doxycycline, doxycycline hyclate], the “percentage of CD31+ cells” value [1] is reported as ~90%, the “decrease in CDH5 expression” value ([2]; clone 3(+Y) hPSC-EPCs, highest doxycycline dose, D11-D15) is reported as ~2 fold and the “downregulation of TJP1” value ([2]; clone 10(+CR2), 2d P+4d D+4P vs PBS control) is reported as ~2 fold. For the same molecule, the “upregulation in MFSD2A” value ([2]; clone 10(+CR2), 6d H+4d D and 6d P+4d D vs PBS control (6d H+4d P), D15) was 60- to 100 fold, the “decrease in expression of CDH5” value [2, 7] was ~3 fold and the “increase in MFSD2A expression” value [2, 7] was ~50 fold. The “increase in SLC2A1 expression” value [2, 7] was > 20 fold, the “increase in expression of ABCB1” value [2, 7] was ~2 fold and the “increase in expression of ABCC1” value [2, 7] was ~2 fold. The “increase in expression of ABCG2” value [2, 7] was ~2 fold, the “upregulation in N1ICD expression” value [2, 7] was ~8 fold and the “increase in CDH2” value ([2]; clone 10(+CR2), 6d P+4d D and 2d P+4d D+4P vs PBS control) was ~2 fold. The “increase in ABCC1” value [2, 8] was 7 fold, the “increase in ABCG2” value [2, 8] was 4 fold and the “increase in FN1” value [2, 8] was ~12 fold. For the same molecule, the “upregulation of CLDN5” value [2, 8] was ~2 fold, the “reduction in CDH5” value ([2]; clone 10(+CR2), 6d P+4d D vs PBS control, significant) was ~2 fold and the “reduction in CDH5” value ([2]; clone 10(+CR2), other doxycycline-treated conditions vs PBS control, non-significant) was ~1.7 fold. For the same molecule, the “average TEER” value [3] was “less than 10 Ω·cm^2”, the “increase in NOTCH1 expression (TPM)” value ([4]; Dox CD144 hi vs PBS CD144 hi) was ~2 fold and the “increase in NOTCH1 expression (TPM)” value ([4]; Dox CD144 lo vs PBS CD144 hi) was ~7 fold. The “cells with high CD144 expression” value [5] was ~25%, the “cells with low but not absent CD144 expression” value [5] was ~65% and the “CD144+ cells” value ([5]; live cells) was ~90%.
In the case of `CC(=O)c1c(O)c(C)c(O)c(Cc2c(O)c3c(c(C(=O)/C=C/c4ccccc4)c2O)OC(C)(C)C=C3)c1O` [rottlerin], the “fluorescent albumin accumulation after endocytosis inhibitor pretreatment” value [6] is reported as “but not with rottlerin”.
